Assay [1] concerns the target T1, Serine/threonine-protein kinase STK11 (Homo sapiens) (UniProt Q15831).
T1 sequence (whole entry): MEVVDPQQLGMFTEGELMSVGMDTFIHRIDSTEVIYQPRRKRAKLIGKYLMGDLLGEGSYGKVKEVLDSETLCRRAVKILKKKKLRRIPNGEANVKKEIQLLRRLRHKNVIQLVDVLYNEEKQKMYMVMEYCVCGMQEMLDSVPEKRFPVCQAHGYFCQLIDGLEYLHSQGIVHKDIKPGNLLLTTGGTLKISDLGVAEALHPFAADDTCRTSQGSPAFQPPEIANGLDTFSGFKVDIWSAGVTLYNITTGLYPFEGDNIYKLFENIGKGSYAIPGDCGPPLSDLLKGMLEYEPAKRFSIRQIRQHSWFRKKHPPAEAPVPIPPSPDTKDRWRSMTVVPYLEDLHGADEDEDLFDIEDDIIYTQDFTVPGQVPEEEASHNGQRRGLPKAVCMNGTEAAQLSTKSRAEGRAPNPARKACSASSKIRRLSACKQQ
As to the kind of experiment: Inhibition of LKB1 Lys2 labeling site in human A-375 cells at 5 uM by KiNativ Profiling analysis relative to control. The class given is cell-based.

The target of assay [2] is Serine/threonine-protein kinase TNNI3K (Homo sapiens) (UniProt Q59H18). Briefly: Inhibition of TNNI3K (unknown origin) at 1 uM by Ambit Kinomescan binding assay relative to control.
Chain of Serine/threonine-protein kinase TNNI3K (Homo sapiens) (Q59H18 whole entry): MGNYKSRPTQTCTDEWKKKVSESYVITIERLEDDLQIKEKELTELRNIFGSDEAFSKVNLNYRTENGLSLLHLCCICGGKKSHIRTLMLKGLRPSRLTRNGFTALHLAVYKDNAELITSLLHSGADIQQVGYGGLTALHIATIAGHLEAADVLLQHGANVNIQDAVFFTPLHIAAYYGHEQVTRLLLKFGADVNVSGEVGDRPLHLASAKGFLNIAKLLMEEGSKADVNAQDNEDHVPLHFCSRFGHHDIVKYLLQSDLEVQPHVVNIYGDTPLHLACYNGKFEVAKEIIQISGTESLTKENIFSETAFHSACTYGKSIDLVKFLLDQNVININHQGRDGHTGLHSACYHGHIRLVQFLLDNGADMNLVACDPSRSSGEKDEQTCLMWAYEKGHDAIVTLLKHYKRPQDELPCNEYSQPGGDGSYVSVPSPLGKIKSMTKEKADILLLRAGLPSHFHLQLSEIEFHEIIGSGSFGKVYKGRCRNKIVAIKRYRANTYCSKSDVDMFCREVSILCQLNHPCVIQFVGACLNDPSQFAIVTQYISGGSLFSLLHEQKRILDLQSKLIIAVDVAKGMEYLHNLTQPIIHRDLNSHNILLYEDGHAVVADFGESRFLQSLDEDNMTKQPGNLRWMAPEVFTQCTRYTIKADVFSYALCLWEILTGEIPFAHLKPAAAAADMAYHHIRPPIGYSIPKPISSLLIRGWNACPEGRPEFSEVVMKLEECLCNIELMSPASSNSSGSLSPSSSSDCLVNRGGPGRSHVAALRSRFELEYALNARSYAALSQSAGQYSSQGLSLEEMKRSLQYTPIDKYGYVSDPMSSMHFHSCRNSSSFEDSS
The target in assay [3] is Phosphatidylinositol 4-kinase beta (Homo sapiens) (UniProt Q9UBF8). As to the kind of experiment: Inhibition of PI4KB ATP labeling site harbouring VPHTQAVVLNSKDKAPYLIYVEVLECENFDTTSVPAR in human A-375 cells at 5 uM by KiNativ Profiling analysis relative to control. The class given is cell-based.
Chain of Phosphatidylinositol 4-kinase beta (Homo sapiens) (Q9UBF8 2-816 limits assumed): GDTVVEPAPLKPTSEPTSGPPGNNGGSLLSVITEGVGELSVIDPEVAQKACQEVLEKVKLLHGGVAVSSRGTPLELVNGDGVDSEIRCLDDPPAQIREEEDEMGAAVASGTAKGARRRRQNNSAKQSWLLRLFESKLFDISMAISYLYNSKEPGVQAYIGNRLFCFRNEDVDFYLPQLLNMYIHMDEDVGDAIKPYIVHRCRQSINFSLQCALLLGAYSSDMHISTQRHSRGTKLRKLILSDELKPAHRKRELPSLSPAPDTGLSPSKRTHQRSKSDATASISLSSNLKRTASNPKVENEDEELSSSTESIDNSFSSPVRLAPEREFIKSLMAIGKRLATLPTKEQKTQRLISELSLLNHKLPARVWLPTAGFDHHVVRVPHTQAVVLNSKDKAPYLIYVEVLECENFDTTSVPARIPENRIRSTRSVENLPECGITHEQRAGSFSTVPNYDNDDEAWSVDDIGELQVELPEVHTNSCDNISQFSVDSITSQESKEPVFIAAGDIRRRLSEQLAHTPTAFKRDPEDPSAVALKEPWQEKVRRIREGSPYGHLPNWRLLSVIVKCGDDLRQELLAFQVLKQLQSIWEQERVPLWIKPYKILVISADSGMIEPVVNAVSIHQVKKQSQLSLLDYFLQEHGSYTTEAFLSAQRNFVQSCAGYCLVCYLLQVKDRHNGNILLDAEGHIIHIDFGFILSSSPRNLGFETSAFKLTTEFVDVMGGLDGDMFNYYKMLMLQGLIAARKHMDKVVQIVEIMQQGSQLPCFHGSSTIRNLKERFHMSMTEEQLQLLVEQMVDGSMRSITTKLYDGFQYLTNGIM
The target of assay [4] is Activin receptor type-1-like (Homo sapiens) (UniProt P37023). Briefly: Inhibition of ACVRL1 (unknown origin) at 1 uM by Ambit Kinomescan binding assay relative to control.
The target of assay [5] is Cyclin-dependent kinase 2 (Homo sapiens) (UniProt P24941). Briefly: Inhibition of CDK2 Lys1 labeling site in human A-375 cells at 0.5 uM by KiNativ Profiling analysis relative to control. The class given is cell-based.
Assay [6] concerns the target 5'-AMP-activated protein kinase catalytic subunit alpha-1 (Homo sapiens) (UniProt Q13131). Briefly: Inhibition of AMPKa1 ATP Loop labeling site in human A-375 cells at 5 uM by KiNativ Profiling analysis relative to control. The class given is cell-based.
In assay [7] the target is RAC-beta serine/threonine-protein kinase (Homo sapiens) (UniProt P31751). As to the kind of experiment: Inhibition of AKT2 ATP Loop labeling site in human A-375 cells at 5 uM by KiNativ Profiling analysis relative to control. It is filed as cell-based.
Chain of RAC-beta serine/threonine-protein kinase (Homo sapiens) (P31751 whole entry): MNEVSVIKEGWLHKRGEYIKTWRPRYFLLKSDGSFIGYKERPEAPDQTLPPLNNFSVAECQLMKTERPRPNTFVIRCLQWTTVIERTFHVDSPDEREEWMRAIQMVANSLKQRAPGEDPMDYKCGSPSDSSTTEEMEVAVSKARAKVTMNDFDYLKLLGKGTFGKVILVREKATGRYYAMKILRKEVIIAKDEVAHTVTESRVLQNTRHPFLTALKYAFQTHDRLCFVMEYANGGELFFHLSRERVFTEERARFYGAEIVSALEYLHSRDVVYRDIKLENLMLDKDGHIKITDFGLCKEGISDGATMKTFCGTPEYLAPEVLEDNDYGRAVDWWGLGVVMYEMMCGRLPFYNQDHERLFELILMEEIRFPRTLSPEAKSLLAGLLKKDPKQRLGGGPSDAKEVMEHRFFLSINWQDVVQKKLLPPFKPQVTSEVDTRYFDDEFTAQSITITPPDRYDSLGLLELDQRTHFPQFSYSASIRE
The target in assay [8] is Protein kinase C theta type (Homo sapiens) (UniProt Q04759). As to the kind of experiment: Inhibition of PRKCQ (unknown origin) at 10 uM by Ambit Kinomescan binding assay.
In assay [9] the target is Non-receptor tyrosine-protein kinase TNK1 (Homo sapiens) (UniProt Q13470). Briefly: Inhibition of TNK1 (unknown origin) at 10 uM by Ambit Kinomescan binding assay relative to control; values are per cent of control.
For assay [10], the target named is Tyrosine-protein kinase Fer (Homo sapiens, UniProt P16591). Briefly: Inhibition of FER K1 labeling site in human Huh-7 cells at 1 uM by KiNativ Profiling analysis relative to control. The class given is cell-based.
Assay [11] deals with Phosphatidylinositol 4-phosphate 3-kinase C2 domain-containing subunit beta (Homo sapiens) (UniProt O00750). As to the kind of experiment: Inhibition of PIK3C2B ATP labeling site in human Huh-7 cells at 1 uM by KiNativ Profiling analysis relative to control. The class given is cell-based.
Chain of Phosphatidylinositol 4-phosphate 3-kinase C2 domain-containing subunit beta (Homo sapiens) (O00750 whole entry, the tested form may be a part): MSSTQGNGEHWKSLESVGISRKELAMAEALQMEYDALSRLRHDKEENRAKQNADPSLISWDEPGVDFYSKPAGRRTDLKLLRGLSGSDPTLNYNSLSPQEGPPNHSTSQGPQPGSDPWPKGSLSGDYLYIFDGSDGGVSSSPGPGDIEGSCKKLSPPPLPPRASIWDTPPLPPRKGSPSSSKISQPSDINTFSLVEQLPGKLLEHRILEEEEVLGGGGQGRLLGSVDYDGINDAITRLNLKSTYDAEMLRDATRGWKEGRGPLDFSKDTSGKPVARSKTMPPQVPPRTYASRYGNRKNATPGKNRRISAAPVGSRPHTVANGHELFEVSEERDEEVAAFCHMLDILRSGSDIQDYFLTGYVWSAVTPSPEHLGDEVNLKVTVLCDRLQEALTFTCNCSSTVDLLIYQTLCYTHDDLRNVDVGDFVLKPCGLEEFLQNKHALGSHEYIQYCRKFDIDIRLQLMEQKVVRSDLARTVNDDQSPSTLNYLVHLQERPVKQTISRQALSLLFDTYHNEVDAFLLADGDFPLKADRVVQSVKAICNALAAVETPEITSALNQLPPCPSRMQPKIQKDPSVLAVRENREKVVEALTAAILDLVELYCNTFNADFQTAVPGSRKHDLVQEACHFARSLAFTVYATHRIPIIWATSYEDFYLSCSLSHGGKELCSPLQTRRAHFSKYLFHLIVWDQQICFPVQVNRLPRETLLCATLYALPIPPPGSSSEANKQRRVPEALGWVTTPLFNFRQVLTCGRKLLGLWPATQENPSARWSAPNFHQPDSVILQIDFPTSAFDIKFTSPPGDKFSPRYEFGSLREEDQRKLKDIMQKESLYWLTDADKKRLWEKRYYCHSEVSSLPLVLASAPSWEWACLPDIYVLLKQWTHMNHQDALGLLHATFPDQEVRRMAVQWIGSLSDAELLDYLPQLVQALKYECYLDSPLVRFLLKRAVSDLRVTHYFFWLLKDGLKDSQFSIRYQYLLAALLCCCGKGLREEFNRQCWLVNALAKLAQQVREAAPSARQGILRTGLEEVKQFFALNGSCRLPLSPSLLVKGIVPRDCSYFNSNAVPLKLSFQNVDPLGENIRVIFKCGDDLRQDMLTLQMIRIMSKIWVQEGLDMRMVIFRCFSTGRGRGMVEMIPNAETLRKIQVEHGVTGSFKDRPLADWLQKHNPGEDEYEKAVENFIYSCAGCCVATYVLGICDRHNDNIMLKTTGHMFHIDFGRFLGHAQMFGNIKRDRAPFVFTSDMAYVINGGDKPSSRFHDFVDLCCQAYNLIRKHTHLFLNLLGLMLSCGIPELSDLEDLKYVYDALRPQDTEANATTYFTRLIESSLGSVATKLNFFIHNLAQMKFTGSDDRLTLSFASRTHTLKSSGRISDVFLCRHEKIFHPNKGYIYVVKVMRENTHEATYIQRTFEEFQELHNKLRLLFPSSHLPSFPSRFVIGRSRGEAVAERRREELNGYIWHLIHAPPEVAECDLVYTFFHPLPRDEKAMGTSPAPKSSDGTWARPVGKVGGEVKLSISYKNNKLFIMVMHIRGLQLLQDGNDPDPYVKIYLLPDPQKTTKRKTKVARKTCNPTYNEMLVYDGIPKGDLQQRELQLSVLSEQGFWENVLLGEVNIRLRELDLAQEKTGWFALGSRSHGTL
Assay [12] has as its target T2, Inhibitor of nuclear factor kappa-B kinase subunit epsilon (Homo sapiens) (UniProt Q14164).
T2 sequence (whole entry): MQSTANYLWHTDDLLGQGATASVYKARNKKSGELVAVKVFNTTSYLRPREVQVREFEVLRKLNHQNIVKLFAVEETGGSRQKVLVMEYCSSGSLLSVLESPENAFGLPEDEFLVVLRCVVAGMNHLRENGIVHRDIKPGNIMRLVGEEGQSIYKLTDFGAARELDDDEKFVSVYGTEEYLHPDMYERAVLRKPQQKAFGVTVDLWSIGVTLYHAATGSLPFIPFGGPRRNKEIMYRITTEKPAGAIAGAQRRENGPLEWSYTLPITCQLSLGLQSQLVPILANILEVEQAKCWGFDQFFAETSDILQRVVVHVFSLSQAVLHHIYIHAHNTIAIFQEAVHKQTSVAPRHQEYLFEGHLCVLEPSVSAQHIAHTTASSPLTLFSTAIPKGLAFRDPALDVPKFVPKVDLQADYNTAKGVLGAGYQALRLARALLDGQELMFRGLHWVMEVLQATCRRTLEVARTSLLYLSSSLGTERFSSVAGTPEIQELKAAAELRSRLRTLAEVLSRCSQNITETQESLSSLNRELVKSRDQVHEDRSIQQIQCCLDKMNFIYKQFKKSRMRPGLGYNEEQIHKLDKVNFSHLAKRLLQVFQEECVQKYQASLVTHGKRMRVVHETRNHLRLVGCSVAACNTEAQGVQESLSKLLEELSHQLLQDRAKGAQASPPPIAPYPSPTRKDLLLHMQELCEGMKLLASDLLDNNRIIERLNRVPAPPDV
As to the kind of experiment: Inhibition of IKKe Lys1 labeling site in human A-375 cells at 0.05 uM by KiNativ Profiling analysis relative to control. The class given is cell-based.

In assay [13] the target is Protein kinase C delta type (Homo sapiens) (UniProt Q05655). As to the kind of experiment: Inhibition of PRKCD (unknown origin) at 10 uM by Ambit Kinomescan binding assay.
Chain of Protein kinase C delta type (Homo sapiens) (Q05655 whole entry, looked up): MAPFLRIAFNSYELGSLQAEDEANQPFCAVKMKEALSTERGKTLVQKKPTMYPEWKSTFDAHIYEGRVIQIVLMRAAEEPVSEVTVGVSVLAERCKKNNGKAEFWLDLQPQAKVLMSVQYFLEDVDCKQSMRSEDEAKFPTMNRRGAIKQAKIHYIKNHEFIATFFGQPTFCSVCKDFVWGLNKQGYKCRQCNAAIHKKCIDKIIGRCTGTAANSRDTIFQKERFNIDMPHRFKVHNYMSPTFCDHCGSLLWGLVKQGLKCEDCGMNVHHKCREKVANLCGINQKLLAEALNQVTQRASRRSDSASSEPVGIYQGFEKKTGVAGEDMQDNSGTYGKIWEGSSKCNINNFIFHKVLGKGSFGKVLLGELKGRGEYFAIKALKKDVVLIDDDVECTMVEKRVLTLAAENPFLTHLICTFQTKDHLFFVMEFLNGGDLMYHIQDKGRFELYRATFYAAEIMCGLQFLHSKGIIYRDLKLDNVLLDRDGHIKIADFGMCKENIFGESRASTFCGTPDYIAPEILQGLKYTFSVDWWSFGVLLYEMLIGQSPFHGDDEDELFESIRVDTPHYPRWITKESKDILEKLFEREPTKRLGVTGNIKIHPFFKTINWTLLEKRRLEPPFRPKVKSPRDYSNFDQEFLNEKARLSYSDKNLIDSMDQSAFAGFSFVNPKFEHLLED
In assay [14] the target is Serine/threonine-protein kinase ATR (Homo sapiens) (UniProt Q13535). Briefly: Inhibition of ATR ATP labeling site in human Huh-7 cell lysate at 1 uM by KiNativ Profiling analysis relative to control. The class given is subcellular.
In assay [15] the target is Serine/threonine-protein kinase 4 (Homo sapiens) (UniProt Q13043). As to the kind of experiment: Inhibition of MST1 Lys1 labeling site harbouring ETGQIVAIKQVPVESDLQEIIK in human Huh-7 cells at 1 uM by KiNativ Profiling analysis relative to control.
Chain of Serine/threonine-protein kinase 4 (Homo sapiens) (Q13043 whole entry, looked up): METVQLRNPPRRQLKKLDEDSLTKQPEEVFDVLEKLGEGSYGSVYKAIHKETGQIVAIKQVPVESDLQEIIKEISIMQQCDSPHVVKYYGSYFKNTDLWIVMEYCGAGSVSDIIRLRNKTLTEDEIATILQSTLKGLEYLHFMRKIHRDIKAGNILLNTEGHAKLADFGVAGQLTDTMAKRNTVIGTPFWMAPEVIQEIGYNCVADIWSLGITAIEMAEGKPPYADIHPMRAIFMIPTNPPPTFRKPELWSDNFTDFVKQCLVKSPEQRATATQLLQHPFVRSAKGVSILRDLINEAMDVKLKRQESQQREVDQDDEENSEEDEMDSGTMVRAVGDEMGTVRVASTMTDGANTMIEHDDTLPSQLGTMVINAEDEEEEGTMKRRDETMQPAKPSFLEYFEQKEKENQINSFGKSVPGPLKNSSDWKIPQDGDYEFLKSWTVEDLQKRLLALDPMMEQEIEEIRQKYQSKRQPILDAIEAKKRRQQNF
The target in assay [16] is Serine/threonine-protein kinase MARK2 (Homo sapiens) (UniProt Q7KZI7). Briefly: Inhibition of MARK2 Lys1 labeling site harbouring HILTGKEVAVKIIDKTQLNSSSLQK in human Huh-7 cell lysate at 1 uM by KiNativ Profiling analysis relative to control. It is filed as subcellular.

Molecules are shown by their SMILES. Activity calls are given as the source filed them. No cut-off for these calls is given here.

Take `CCN1CCN(Cc2ccc(NC(=O)c3ccc(C)c(/C=C/c4cnc5[nH]ccc5c4OC)c3)cc2C(F)(F)F)CC1`: the inhibition in assay [1] turned out to be 28.7%; in assay [2], 5.9%; in assay [3] it was 14.1%; in [4] it was 100%; in assay [5], 20.7%; in assay [6], 9.1%. Besides, the inhibition in [7] is 13.3%.
Take `CCN1CCN(Cc2ccc(NC(=O)c3ccc(C)c(Oc4ccnc5[nH]ccc45)c3)cc2C(F)(F)F)CC1`: the inhibition entry in [8] and in assay [13] was “inactive” each time. The residual activity in assay [9] turned out to be 0.35%. The inhibition in [10] was 52.4%; in assay [11], -9.4%; in [12], -3.7%.
For `CNc1cc(Oc2cc(C(=O)Nc3cc(N4CCN(C)CC4)cc(C(F)(F)F)c3)ccc2C)ncn1`, the inhibition was 5.1% in [14], 8.9% in assay [15] and -1.9% in [16].

For the origin of these results see ChEMBL document CHEMBL5696442, “Discovery of type II inhibitors of TGFβ-activated kinase 1 (TAK1) and mitogen-activated protein kinase kinase kinase kinase 2 (MAP4K2)” (J Med Chem, 2015).
